Values after ≈ are worked out from the molar mass of the structure shown. Like-named read-outs stand apart in the source and are kept apart here. Marks after values point to notes of the source that are not given here.
What was measured:
[1] = Serum protein binding by ultrafiltration; assay type: in vitro ADME; settings: male, human serum, 1 h at 37 °C, mean ± SD, read-out: Serum Protein Binding % Bound (converted)
Procedure: The serum protein binding properties of the galactosylated prodrugs and parent drugs were investigated using ultrafiltration. The compounds were incubated in human serum, and after 1 h, the concentrations of the compounds in the ultrafiltrate and the original serum were determined by means of RP-HPLC, and used to calculate the binding percentages, which are reported in Table 2.
Free- and protein-bound drug separation was obtained via ultrafiltration using commercially available membrane systems (Centrifree ultrafiltration devices with ultracel YM-T membrane, Merck, KGaA, Darmstadt, Germany). […] One milliliter of the solution was inserted into the sample reservoir of the ultrafiltration device and gently shaken in an orbital shaker for 1 h at 37 °C. […] The concentration of the compound both in the ultrafiltrate and filtrate was analyzed via RP-HPLC under the chromatographic conditions described above and using the calibration curves of standard solutions. […] The recovery of the ultrafiltration process was calculated to observe any possible compound loss during the operations in view of the limited solubility of the tested compounds.

[2] = system: acetic-acid-induced writhing in mice; assay: Acetic-acid-induced writhing test; assay type: in vivo, CD1 mice; settings: oral IbuGAL 17.8, IndoGAL 14.5, OkyGAL 16.4, FluGAL 16.7 mg/kg; 0.6% acetic acid i.p.; 48 h
Procedure: The number of acetic-acid-induced abdominal stretches can be evaluated in Figure 3. Control mice received an intraperitoneal injection of 0.6% acetic acid (10 mL/kg). […]
Figure 5 (a–d). Total number of writhing episodes within 20 min after acetic acid injection. […] Data are expressed as means ± S.E.M. of 6 animals. *** p < 0.001, ** p < 0.01 vs. Control.
The acetic-acid-induced writhing test was performed as reported previously. […] The number of abdominal constrictions and extensions of the trunk and hind limbs were counted for each group of mice, starting from 5 min after the injection of acetic acid up to 20 min afterwards, and expressed as the number of writhing episodes.

[3] = system: NSAID-induced gastric damage in mice; assay: Ulcerogenicity study (gastric lesion score); assay type: in vivo, CD1 mice; settings: fasted mice, oral, parent 10 mg/kg or equimolecular prodrug, score 0 irritation, 1 lesions 1-2 mm, 2 lesions 2-3 mm, 3 lesions >3 mm; for Gastric Lesion Score (4 h): 4 h after treatment; for Gastric Lesion Score (48 h): 48 h after treatment
Procedure: NSAID-induced gastric damage in mice was evaluated following the procedure described by Chan et al.. […] The mucosa was then examined by means of a magnifying glass for the presence of irritation or frank hemorrhagic lesions (ulcers). Irritation was assigned a score of 0, and ulcerations were scored according to their length (a score of 1 for lesions with a length between 1 and 2 mm, a score of 2 for lesions with a length between 2 and 3 mm, a score of 3 for lesions greater than 3 mm). The sum of total scores was used for comparison.

[4] = Stability in human serum at 37 °C; settings: for degradation in human serum in 24 h / Stability at 37 °C, % compound after 24 h of incubation, Human Serum: 37 °C; for half-life at 200 µM: male, human; for Stability at 37 °C, % compound after 24 h of incubation, Human Serum: unmodified incubated compound, 200 µM, mean ± SD
Procedure: A solution of each compound (10 mM in DMSO) was added to human serum (sterile-filtered from human male AB plasma, USA origin, sterile-filtered, Sigma-Aldrich) and preheated and maintained at 37 °C ± 0.5 °C. Three-hundred microliters of the resulting solutions (200 µM) was withdrawn at appropriate time intervals and added to 300 µL of CH3CN, which contained 0.1% TFA, in order to deproteinize the serum. […] Each clear supernatant was filtered using 0.45 µm PTFE filters (VWR International S.r.l., Milano, Italy) and analyzed via RP-HPLC as described below.
The reverse-phase HPLC procedure allowed the galactosylated prodrugs and their parent drugs to be separated and quantified. […] The analytical column was a ZORBAX Eclipse XDB-C8 (150 × 4.6 mm, 5 µm; Agilent, Santa Clara, CA, USA). The mobile phase consisted of 0.1% aqueous TFA and 0.1% TFA CH3CN 50/50 w/w% at a flow rate of 1.0 mL/min. The injection volume was 20 µL (Rheodyne, Cotati, CA, USA). The column effluent was monitored at 228 nm and 254 nm, referenced against an 800 nm wavelength. The quantitation of compounds was calculated using calibration curves and the linearity of the calibration curves was determined in a concentration range of 1–100 µM (r^2 > 0.99).

[5] = Solubility assay at 25 °C (RP-HPLC); assay type: physicochemical; settings: thermodynamic from solid
Procedure: The solubilities of the prodrugs and parent drugs were evaluated at 25 °C in water, simulated gastric fluid (SGF without pepsin, pH 1.2) and PBS (pH 7.4), which are the media used for chemical stability analyses. The solubilities were quantified using RP-HPLC.
Solubility was assessed in deionized water, SGF without pepsin (pH 1.2) and PBS (pH 7.4, 50 mM). The test solid compounds (5 mg) were added to 1 mL of water, PBS and SGF in glass tubes and shaken for 6 h at 25 °C. The suspensions were filtered through a PTFE 0.45 μm filter (VWR), and the resulting solutions were analyzed by means of RP-HPLC (see below). Experiments were performed in triplicate for each compound. Solubility is expressed as mM concentration.

[6] = Distribution coefficient n-octanol/PBS pH 7.4, shake-flask; assay type: physicochemical; settings: room temperature, mean ± SD
Description: Lipophilicity is the key physicochemical parameter that influences solubility and various other aspects of the pharmacokinetic and pharmacodynamic profile of drugs. The hydrophilic-lipophilic behavior of galactosylated prodrugs and parent drugs was investigated by measuring the distribution coefficients (log D^pH) in n-octanol-phosphate buffered saline (PBS, pH 7.4) using the shake-flask technique.
Each log D value is an average of a minimum of six measurements.

[7] = Chemical stability in SGF (pH 1.2) and PBS (pH 7.4) at 37 °C; assay type: physicochemical; settings: unmodified incubated compound, 100 µM, PBS pH 7.4, 37 °C, mean ± SD
Procedure: The concentrations of the galactosylated prodrugs and the parent drugs derived from the prodrugs were quantified using RP-HPLC (Table 2).
A 10 mM solution of each compound (the galactosylated prodrugs and their parent drugs) was added to either simulated gastric fluid (SGF-without pepsin) or phosphate-buffered saline (PBS, 50 mM). The SGF and PBS buffers were prepared as previously described.

[8] = system: carrageenan-induced paw edema in mice; assay: Carrageenan-induced paw edema / hyperalgesia; assay type: in vivo, CD1 mice; settings: oral; parent drugs 10 mg/kg, equimolecular IbuGAL 17.8, IndoGAL 14.5, OkyGAL 16.4, FluGAL 16.7 mg/kg
Procedure: We tested the anti-inflammatory response of the parent drugs and their relative galactosylated prodrugs by subcutaneously injecting λ-carrageenan (1% (w/v) in sterile saline, 20 μL) into the hind paws of mice.
Figure 4 (a–d). […] White circles represent control mice treated with vehicle. […] The increase in paw volume was evaluated and is expressed as the difference in paw volume measured at each time point and the basal paw volume measured immediately before carrageenan injection. Data are expressed as means ± S.E.M. of 6 animals. *** p < 0.001, ** p < 0.01 and […] vs. Control.
Carrageenan-induced paw edema was induced by injecting λ-carrageenan (1% w/v in sterile water, 20 μL) subcutaneously into the hind paws of mice using a 27 gauge needle. […] The increase in paw volume was evaluated using a plethysmometer (Ugo Basile, Milan, Italy) and reported as the difference between the paw volume measured at each time point and the basal paw volume measured immediately before carrageenan injection.

[9] = aqueous buffer, PBS pH 7.4 50 mM, 25 °C, read-out: Solubility at 25 °C, PBS pH 7.4
[10] = simulated gastric fluid, SGF without pepsin pH 1.2, 25 °C, LOQ (HPLC) = 1 µM, read-out: Solubility at 25 °C, SGF pH 1.2
[11] = deionized water, 6 h shaking, 25 °C, mean, SD < 0.01, read-out: Solubility at 25 °C, Water

CC(C(=O)OC[C@H]1OC(O)[C@H](O)[C@@H](O)[C@H]1O)c1ccc(-c2ccccc2)c(F)c1 (some centres unmarked) [FluGAL]
fraction unbound at 1 h, 100 µM [1]: 0.039
writhing responses after 48 h vs control [2]: significant decrease
Gastric Lesion Score (4 h) [3]: 0 **
Gastric Lesion Score (48 h) [3]: 0.5
degradation in human serum in 24 h [4]: ~50%
half-life at 200 µM [4]: ~24 h
Stability at 37 °C, % compound after 24 h of incubation, Human Serum [4]: 57.3 ± 1.4%
solubility at 6 h [5, 9]: 1010 µM (≈ 410 µg/mL)
solubility at 6 h [5, 10]: 1440 µM (≈ 585 µg/mL)
solubility at 6 h [5, 11]: 5210 µM (≈ 2120 µg/mL)
logD [6]: 1.89 ± 0.09
Stability at 37 °C, % compound after 24 h of incubation, PBS pH 7.4 [7]: 87.3 ± 2.1%
effect on carrageenan-induced paw edema/hyperalgesia during the first phase (0–6 h) [8]: did not change

CC(C)Cc1ccc(C(C)C(=O)OC[C@H]2OC(O)[C@H](O)[C@@H](O)[C@H]2O)cc1 (some centres unmarked) [IbuGAL]
fraction unbound at 1 h, 100 µM [1]: 0.028
writhing responses after 48 h vs control [2]: significant decrease
Gastric Lesion Score (4 h) [3]: 0 **
Gastric Lesion Score (48 h) [3]: 1
degradation in human serum in 24 h [4]: ~50%
half-life at 200 µM [4]: ~24 h
Stability at 37 °C, % compound after 24 h of incubation, Human Serum [4]: 54.1 ± 2.2%
solubility at 6 h [5, 9]: 2930 µM (≈ 1080 µg/mL)
solubility at 6 h [5, 10]: 2530 µM (≈ 932 µg/mL)
solubility at 6 h [5, 11]: 1940 µM (≈ 715 µg/mL)
logD [6]: 1.73 ± 0.04
Stability at 37 °C, % compound after 24 h of incubation, PBS pH 7.4 [7]: 81.2 ± 2.5%
effect on carrageenan-induced paw edema/hyperalgesia during the first phase (0–6 h) [8]: did not change

Reference: publication PMC9142922, “Galactosylated Prodrugs: A Strategy to Improve the Profile of Nonsteroidal Anti-Inflammatory Drugs” (Pharmaceuticals, 2022)
